Assay results published in patent US8802597B2, “Herbicidal pyrimidines” (E I du Pont de Nemours and Company, priority 2003, dated 2014).
Where two headings read alike, the source gives them in different places.

Key:
Type in all cases: in vivo
[1] = system: umbrella sedge (Cyperus difformis); test: Test B flooded paddy test; details: Cyperus difformis, Flood, 1000 g ai/ha; scale 0 to 100; read-out: Plant response rating, Sedge, Umbrella
Method in brief: (§1)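 Rice, umbrella sedge, duck salad and barnyardgrass grown to 2-leaf stage under flooded paddy conditions and treated with formulated test chemicals. Kept in greenhouse 13–15 days, then visually rated against untreated controls on a 0–100 scale (0 no effect, 100 complete control).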

rice (Oryza sativa) = test: Test B flooded paddy test; details: Oryza sativa, Flood, 1000 g ai/ha; scale 0 to 100; read-out: Plant response rating, Rice
Method in brief: as §1

[2] = system: barnyardgrass (Echinochloa crus-galli); test: Test B flooded paddy test; details: Echinochloa crus-galli, Flood, 1000 g ai/ha; scale 0 (no effect) to 100 (complete control); read-out: Plant response rating, Barnyardgrass
Method in brief: as §1

[3] = system: duck salad (Heteranthera limosa); test: Test B flooded paddy test; details: Heteranthera limosa, Flood, 1000 g ai/ha; scale 0 to 100; read-out: Plant response rating, Ducksalad
Method in brief: as §1

[4] = system: Surinam grass (Brachiaria decumbens); test: Test B pre/postemergence; details: Urochloa decumbens; for pest or weed control at 125 g/ha: 125 g ai/ha; for pest or weed control at 500 g/ha: 500 g ai/ha
Method in brief: (§2)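 Visual rating, 0 (no effect) to 100 (complete control) versus controls, taken 13–15 days after treatment in greenhouse. Compounds formulated in non-phytotoxic solvent plus surfactant; pre: sprayed after seeding; post: plants at 1- to 4-leaf stage, 2–18 cm.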

[5] = system: wheat (Triticum aestivum); test: Test B pre/postemergence; details: Triticum aestivum; for plant injury at 125 g/ha: 125 g ai/ha; for plant injury at 500 g/ha: 500 g ai/ha
Method in brief: as §2

[6] = system: pigweed (Amaranthus retroflexus); test: Test B pre/postemergence; details: Amaranthus retroflexus; for pest or weed control at 125 g/ha: 125 g ai/ha; for pest or weed control at 500 g/ha: 500 g ai/ha
Method in brief: as §2

[7] = system: velvetleaf (Abutilon theophrasti); test: Test B pre/postemergence; details: Abutilon theophrasti; for pest or weed control at 125 g/ha: 125 g ai/ha; for pest or weed control at 500 g/ha: 500 g ai/ha
Method in brief: as §2

corn (Zea mays) = test: Test B pre/postemergence; details: Zea mays
Method in brief: as §2

[8] = system: morningglory (Ipomoea coccinea); test: Test B pre/postemergence; details: Ipomoea; for pest or weed control at 125 g/ha: 125 g ai/ha; for pest or weed control at 500 g/ha: 500 g ai/ha
Method in brief: as §2

[9] = system: giant foxtail (Setaria faberii); test: Test B pre/postemergence; details: Setaria faberi; for pest or weed control at 125 g/ha: 125 g ai/ha; for pest or weed control at 500 g/ha: 500 g ai/ha
Method in brief: as §2

[10] = system: cocklebur (Xanthium strumarium); test: Test B pre/postemergence; details: Xanthium strumarium; for pest or weed control at 125 g/ha: 125 g ai/ha; for pest or weed control at 500 g/ha: 500 g ai/ha
Method in brief: as §2

[11] = system: crabgrass (Digitaria sanguinalis); test: Test B pre/postemergence; details: Digitaria sanguinalis; for pest or weed control at 125 g/ha: 125 g ai/ha; for pest or weed control at 500 g/ha: 500 g ai/ha
Method in brief: as §2

[12] = system: barnyardgrass (Echinochloa crus-galli); test: Test B pre/postemergence; details: Echinochloa crus-galli; for pest or weed control at 125 g/ha: 125 g ai/ha; for pest or weed control at 500 g/ha: 500 g ai/ha
Method in brief: as §2

[13] = system: lambsquarters (Chenopodium album); test: Test B pre/postemergence; details: Chenopodium album; for pest or weed control at 125 g/ha: 125 g ai/ha; for pest or weed control at 500 g/ha: 500 g ai/ha
Method in brief: as §2

[14] = system: blackgrass (Alopecurus myosuroides); test: Test B postemergence; details: Alopecurus myosuroides, post-emergence
Method in brief: as §2

wild oat (Avena fatua) = test: Test B postemergence; details: Avena fatua, post-emergence
Method in brief: as §2

Nc1nc(C2CC2)nc(C=O)c1F [Compound 24]
40%: pest or weed control at 125 g/ha ([7]; post-emergence, Postemergence, scale 0 to 100 (0 no effect, 100 complete control), read-out: Velvetleaf plant response rating) | pest or weed control at 500 g/ha ([11]; post-emergence, Postemergence, scale 0 to 100, read-out: Plant response rating, Crabgrass)
90%: pest or weed control at 500 g/ha ([6]; pre-emergence, Preemergence, scale 0 to 100 (0 no effect, 100 complete control), read-out: Pigweed plant response rating) | pest or weed control at 500 g/ha ([8]; post-emergence, Postemergence, scale 0 to 100, read-out: Plant response rating, Morningglory) | pest or weed control at 500 g/ha ([8]; pre-emergence, Preemergence, scale 0 to 100 (0 no effect, 100 complete control), read-out: Morningglory plant response rating) | pest or weed control at 500 g/ha ([10]; pre-emergence, Preemergence, scale 0 to 100 (0 no effect, 100 complete control), read-out: Cocklebur plant response rating) | pest or weed control at 500 g/ha ([13]; pre-emergence, Preemergence, scale 0 to 100 (0 no effect, 100 complete control), read-out: Lambsquarters plant response rating)
30%: plant injury at 125 g/ha ([5]; pre-emergence, Preemergence, scale 0 to 100 (0 no effect, 100 complete control), read-out: Plant response rating, Wheat) | pest or weed control at 500 g/ha ([9]; post-emergence, Postemergence, scale 0 to 100, read-out: Plant response rating, Foxtail, Giant)
80%: pest or weed control at 500 g/ha ([6]; post-emergence, Postemergence, scale 0 to 100, read-out: Plant response rating, Pigweed) | pest or weed control at 125 g/ha ([6]; pre-emergence, Preemergence, scale 0 to 100 (0 no effect, 100 complete control), read-out: Plant response rating, Pigweed) | pest or weed control at 500 g/ha ([7]; pre-emergence, Preemergence, scale 0 to 100 (0 no effect, 100 complete control), read-out: Velvetleaf plant response rating) | pest or weed control at 125 g/ha ([10]; pre-emergence, Preemergence, scale 0 to 100 (0 no effect, 100 complete control), read-out: Plant response rating, Cocklebur) | pest or weed control at 500 g/ha ([11]; pre-emergence, Preemergence, scale 0 to 100 (0 no effect, 100 complete control), read-out: Crabgrass plant response rating) | pest or weed control at 500 g/ha ([13]; post-emergence, Postemergence, scale 0 to 100, read-out: Plant response rating, Lambsquarters)
10%: plant injury at 1000 g/ha (rice (Oryza sativa)) | pest or weed control at 500 g/ha ([4]; post-emergence, Postemergence, scale 0 to 100, read-out: Plant response rating, Surinam Grass) | pest or weed control at 125 g/ha ([4]; pre-emergence, Preemergence, scale 0 to 100 (0 no effect, 100 complete control), read-out: Plant response rating, Surinam Grass) | Corn plant response rating (crop injury, 0 = no effect, 100 = complete kill) at 500 g/ha (corn (Zea mays); post-emergence, Postemergence, 500 g ai/ha, scale 0 to 100) | pest or weed control at 125 g/ha ([9]; pre-emergence, Preemergence, scale 0 to 100 (0 no effect, 100 complete control), read-out: Plant response rating, Foxtail, Giant) | pest or weed control at 500 g/ha ([12]; post-emergence, Postemergence, scale 0 to 100, read-out: Plant response rating, Barnyardgrass) | pest or weed control at 500 g/ha ([14]; 500 g ai/ha, scale 0 to 100, read-out: Plant response rating, Blackgrass)
50%: pest or weed control at 500 g/ha ([4]; pre-emergence, Preemergence, scale 0 to 100 (0 no effect, 100 complete control), read-out: Surinam Grass plant response rating) | pest or weed control at 500 g/ha ([7]; post-emergence, Postemergence, scale 0 to 100, read-out: Plant response rating, Velvetleaf) | pest or weed control at 125 g/ha ([7]; pre-emergence, Preemergence, scale 0 to 100 (0 no effect, 100 complete control), read-out: Plant response rating, Velvetleaf) | pest or weed control at 125 g/ha ([8]; pre-emergence, Preemergence, scale 0 to 100 (0 no effect, 100 complete control), read-out: Plant response rating, Morningglory) | pest or weed control at 125 g/ha ([10]; post-emergence, Postemergence, scale 0 to 100 (0 no effect, 100 complete control), read-out: Cocklebur plant response rating)
60%: pest or weed control at 125 g/ha ([8]; post-emergence, Postemergence, scale 0 to 100 (0 no effect, 100 complete control), read-out: Morningglory plant response rating) | pest or weed control at 500 g/ha ([9]; pre-emergence, Preemergence, scale 0 to 100 (0 no effect, 100 complete control), read-out: Foxtail, Giant plant response rating) | pest or weed control at 125 g/ha ([11]; pre-emergence, Preemergence, scale 0 to 100 (0 no effect, 100 complete control), read-out: Plant response rating, Crabgrass)
20%: pest or weed control at 1000 g/ha [1] | pest or weed control at 125 g/ha ([9]; post-emergence, Postemergence, scale 0 to 100 (0 no effect, 100 complete control), read-out: Foxtail, Giant plant response rating) | pest or weed control at 125 g/ha ([11]; post-emergence, Postemergence, scale 0 to 100 (0 no effect, 100 complete control), read-out: Crabgrass plant response rating) | pest or weed control at 500 g/ha ([12]; pre-emergence, Preemergence, scale 0 to 100 (0 no effect, 100 complete control), read-out: Barnyardgrass plant response rating)
70%: plant injury at 500 g/ha ([5]; pre-emergence, Preemergence, scale 0 to 100 (0 no effect, 100 complete control), read-out: Wheat plant response rating) | pest or weed control at 125 g/ha ([6]; post-emergence, Postemergence, scale 0 to 100 (0 no effect, 100 complete control), read-out: Pigweed plant response rating) | pest or weed control at 500 g/ha ([10]; post-emergence, Postemergence, scale 0 to 100, read-out: Plant response rating, Cocklebur) | pest or weed control at 125 g/ha ([13]; post-emergence, Postemergence, scale 0 to 100 (0 no effect, 100 complete control), read-out: Lambsquarters plant response rating) | pest or weed control at 125 g/ha ([13]; pre-emergence, Preemergence, scale 0 to 100 (0 no effect, 100 complete control), read-out: Plant response rating, Lambsquarters)
0%: pest or weed control at 1000 g/ha [2] | pest or weed control at 1000 g/ha [3] | pest or weed control at 125 g/ha ([4]; post-emergence, Postemergence, scale 0 to 100 (0 no effect, 100 complete control), read-out: Surinam Grass plant response rating) | plant injury at 125 g/ha ([5]; post-emergence, Postemergence, scale 0 to 100 (0 no effect, 100 complete control), read-out: Wheat plant response rating) | plant injury at 500 g/ha ([5]; post-emergence, Postemergence, scale 0 to 100, read-out: Plant response rating, Wheat) | plant injury at 125 g/ha (corn (Zea mays); post-emergence, Postemergence, 125 g ai/ha, scale 0 to 100 (0 no effect, 100 complete control), read-out: Corn plant response rating) | plant injury at 500 g/ha (corn (Zea mays); pre-emergence, Preemergence, 500 g ai/ha, scale 0 to 100 (0 no effect, 100 complete control), read-out: Corn plant response rating) | pest or weed control at 125 g/ha ([12]; post-emergence, Postemergence, scale 0 to 100 (0 no effect, 100 complete control), read-out: Barnyardgrass plant response rating) | pest or weed control at 125 g/ha ([12]; pre-emergence, Preemergence, scale 0 to 100 (0 no effect, 100 complete control), read-out: Plant response rating, Barnyardgrass) | pest or weed control at 125 g/ha ([14]; 125 g ai/ha, scale 0 to 100 (0 no effect, 100 complete control), read-out: Blackgrass plant response rating) | pest or weed control at 125 g/ha (wild oat (Avena fatua); 125 g ai/ha, scale 0 to 100 (0 no effect, 100 complete control), read-out: Oat, Wild plant response rating) | pest or weed control at 500 g/ha (wild oat (Avena fatua); 500 g ai/ha, scale 0 to 100, read-out: Plant response rating, Oat, Wild)
